How the values were obtained:
Assay type in all cases: cell-based
[1] = target: T1, AalbOr11 (odorant receptor 11) (Aedes albopictus, UniProt A0ABM1ZVX3); assay: two-electrode voltage clamp in Xenopus oocytes co-expressing AalbOr11/AalbOrco, concentration-response
T1 construct: with AalbOrco
T1 sequence (A0ABM1ZVX3 1-420): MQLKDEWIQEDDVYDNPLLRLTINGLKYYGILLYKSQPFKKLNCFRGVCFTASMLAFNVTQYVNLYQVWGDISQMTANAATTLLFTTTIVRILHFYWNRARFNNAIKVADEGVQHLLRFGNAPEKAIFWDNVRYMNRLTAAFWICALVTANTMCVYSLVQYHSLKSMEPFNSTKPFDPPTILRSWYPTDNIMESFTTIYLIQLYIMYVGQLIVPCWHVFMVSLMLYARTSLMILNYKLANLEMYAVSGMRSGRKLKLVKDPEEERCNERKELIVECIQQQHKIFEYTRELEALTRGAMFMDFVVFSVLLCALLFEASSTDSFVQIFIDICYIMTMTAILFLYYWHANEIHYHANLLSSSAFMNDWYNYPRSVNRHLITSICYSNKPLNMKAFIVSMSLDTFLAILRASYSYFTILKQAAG
T1 sequence (W8NXX6 1-479 partner): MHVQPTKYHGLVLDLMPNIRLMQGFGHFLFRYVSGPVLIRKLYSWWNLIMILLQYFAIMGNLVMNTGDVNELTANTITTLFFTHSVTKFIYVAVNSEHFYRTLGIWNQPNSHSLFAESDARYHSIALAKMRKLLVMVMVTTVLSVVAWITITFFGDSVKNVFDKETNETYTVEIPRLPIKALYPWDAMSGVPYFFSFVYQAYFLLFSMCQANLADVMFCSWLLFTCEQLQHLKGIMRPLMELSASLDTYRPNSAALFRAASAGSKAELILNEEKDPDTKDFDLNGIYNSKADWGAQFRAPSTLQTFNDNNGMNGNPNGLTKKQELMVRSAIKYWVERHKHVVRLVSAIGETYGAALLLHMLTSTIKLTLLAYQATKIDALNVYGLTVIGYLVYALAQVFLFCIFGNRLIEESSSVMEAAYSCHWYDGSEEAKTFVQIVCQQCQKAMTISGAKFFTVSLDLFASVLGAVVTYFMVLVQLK

[2] = target: T1, AalbOr11 (odorant receptor 11); assay: two-electrode voltage clamp in Xenopus oocytes; current […] nA at […]
[3] = target: T1, AalbOr11 (odorant receptor 11); assay: two-electrode voltage clamp in Xenopus oocytes co-expressing AalbOr11/AalbOrco, concentration-response; remark: listed apart in the source
[4] = target: T1, AalbOr11 (odorant receptor 11); assay: two-electrode voltage clamp in Xenopus oocytes, screen at […]

Structure (SMILES) | two-electrode voltage clamp in Xenopus oocytes; current >300 nA at 10^-4 M [2] | further results
CC(=O)c1cccs1 [2-acetylthiophene] | – | two-electrode voltage clamp in Xenopus oocytes co-expressing AalbOr11/AalbOrco, [1]: indole was replaced with 2-acetylthiophene to conduct concentration gradient assay
CCc1ccccc1O [2-ethylphenol] | five aromatics 3-methylindole, 2-ethyltoluene, indole, acetophenone, and 2-ethylphenol | –
CCc1ccccc1C [2-ethyltoluene] | – | EC50 [3]: 62.2 µM
Cc1c[nH]c2ccccc12 [3-methylindole] | five aromatics 3-methylindole, 2-ethyltoluene, indole, acetophenone, and 2-ethylphenol | –
CC1(C)C(=O)[C@@]2(C)CC[C@@H]1C2 [(+)-fenchone] | – | EC50 [3]: 139 µM
CC1(C)C(=O)[C@]2(C)CC[C@H]1C2 [(−)-fenchone] | The seven strong ligands comprised two terpenes (+)-fenchone and (−)-fenchone | –
CC(=O)c1ccccc1 [acetophenone] | five aromatics 3-methylindole, 2-ethyltoluene, indole, acetophenone, and 2-ethylphenol | –
C=CCc1ccc(O)c(OC)c1 [eugenol] | – | two-electrode voltage clamp in Xenopus oocytes, screen at 10^-4 M [4]: except eugenol, which could activate AalbOr11 but could not activate AgOr11
c1ccc2[nH]ccc2c1 [indole] | five aromatics 3-methylindole, 2-ethyltoluene, indole, acetophenone, and 2-ethylphenol | –
COC(=O)c1ccccc1C [methyl-2-methylbenzoate] | – | two-electrode voltage clamp in Xenopus oocytes, screen at 10^-4 M [4]: AalbOr11 was sensitive to human odor, such as indole, 3-methylindole, and methyl-2-methylbenzoate

Source: PMC8805257, “Molecular and functional characterization of a conserved odorant receptor from Aedes albopictus” (Parasites & Vectors, 2022)
